Measurements taken from patent US12275729B2 (Merck Sharp & Dohme LLC, priority 2017, dated 2025).

Assays:
IDO1 [1] = biological target: T1, IDO1 (Homo sapiens, UniProt P14902); experiment: IDO1 Human Whole Blood Assay; assay type: cell-based; set-up: Human whole blood was drawn in sodium heparin coated tubes from healthy internal donors; from tissue; host or cells: human whole blood from healthy donors, stimulated with LPS and IFNγ; conditions: LPS and IFNγ stimulated
IDO1 [2] = biological target: T1, IDO1; experiment: IDO1 Cellular Assay in HeLa Cells Stimulated with IFNγ; assay type: cell-based; conditions: read-out: Hela IC50

T1 sequence (P14902 whole entry): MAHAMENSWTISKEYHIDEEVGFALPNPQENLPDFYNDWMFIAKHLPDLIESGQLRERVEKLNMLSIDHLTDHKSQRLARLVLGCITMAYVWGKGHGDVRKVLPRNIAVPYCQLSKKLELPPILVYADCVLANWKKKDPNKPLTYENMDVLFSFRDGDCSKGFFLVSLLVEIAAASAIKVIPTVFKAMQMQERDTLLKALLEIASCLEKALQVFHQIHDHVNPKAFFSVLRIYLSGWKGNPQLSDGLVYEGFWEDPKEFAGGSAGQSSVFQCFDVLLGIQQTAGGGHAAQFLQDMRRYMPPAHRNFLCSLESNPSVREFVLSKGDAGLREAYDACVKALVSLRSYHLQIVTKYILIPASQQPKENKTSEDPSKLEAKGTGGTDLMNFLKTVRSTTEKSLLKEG

Row | IC50 (IDO1 [1]) [nM] | IC50 (IDO1 [2]) [nM] | IC50 (IDO1 [2]; about 48 hours) [nM] | Compound
1 | 131 | – | 1.6 | O=C(Nc1ccc(F)cc1)C1(c2ccc3c(n2)CCCN3c2ccnc(C(F)(F)F)n2)COC1 [Example 393, N-(4-fluorophenyl)-3-(5-(2-(trifluoromethyl)pyrimidin-4-yl)-5,6,7,8-tetrahydro-1,5-naphthyridin-2-yl)oxetane-3-carboxamide]
2 | 47 | 9.87 | – | CC(NC(=O)c1ccc(F)cc1)c1ccc2c(n1)CCCN2C(=O)OC(C)(C)C(F)(F)F (stereo not shown) [Example 312]
3 | 2040 | – | 4.5 | CC(C)(C(=O)Nc1ccc(Cl)cc1)c1ccc2c(c1)CCCN2C(=O)c1cccc(Cl)c1 [Example 187, 2-[1-(3-chlorobenzene-1-carbonyl)-1,2,3,4-tetrahydroquinolin-6-yl]-N-(4-chlorophenyl)-2-methylpropanamide]
4 | 984 | 0.69 | – | Cc1nccc(N2CCCc3nc(C(C)C(=O)Nc4ccc(Cl)cc4)ccc32)n1 (stereo not shown) [Example 362, N-(4-chlorophenyl)-2-(5-(2-methylpyrimidin-4-yl)-5,6,7,8-tetrahydro-1,5-naphthyridin-2-yl)propanamide]
5 | 1000 | 71 | – | Cc1nccc(N2CCCc3nc(C4(C(=O)Nc5ccc(F)cc5)CC(O)C4)ccc32)n1 (stereo not shown) [Example 426, 2-(1-((4-fluorophenyl)carbamoyl)-3-hydroxycyclobutyl)-5-(2-methylpyrimidin-4-yl)-5,6,7,8-tetrahydro-1,5-naphthyridin-1-ium 2,2,2-trifluoroacetate]
6 | 35 | – | 1.34 | CC(C(=O)Nc1ccc(Cl)cc1)c1ccc2c(c1)CC(F)CN2C(=O)c1cccc(Cl)c1 (single isomer, unassigned) [Example 257, 2-(1-(3-chlorobenzoyl)-3-fluoro-1,2,3,4-tetrahydroquinolin-6-yl)-N-(4-chlorophenyl)propanamide]
7 | 26 | – | 1.7 | CC(NC(=O)c1ccc(F)cc1)c1ccc2c(n1)CCCN2C(=O)c1ccccc1Cl (stereo not shown) [Example 141, N-{1-[5-(2-chlorobenzene-1-carbonyl)-5,6,7,8-tetrahydro-1,5-naphthyridin-2-yl]ethyl}-4-fluorobenzamide]
8 | 90 | – | 2 | O=C(OC1CC1)N1CCc2cc(C3(C(=O)Nc4ccc(Cl)cc4)CCC3)ccc21 [Example 273, cyclopropyl 5-{1-[(4-chlorophenyl)carbamoyl]cyclobutyl}-2,3-dihydro-1H-indole-1-carboxylate]
9 | 50 | – | 472 | CC(NC(=O)c1ccc(F)cc1)c1ccc2c(n1)CCCN2C(=O)c1cc(C(F)(F)F)ccn1 (stereo not shown) [Example 278, 4-fluoro-N-(1-(5-(4-(trifluoromethyl)picolinoyl)-5,6,7,8-tetrahydro-1,5-naphthyridin-2-yl)ethyl)benzamide]

The next lines start with the compound.

Row | Compound | IC50 (IDO1 [1]) [nM] | IC50 (IDO1 [2]) [nM] | IC50 (IDO1 [2]; about 48 hours) [nM]
10 | COC[C@@H](C)OC(=O)N1CCCc2nc(C(C)NC(=O)c3ccc(F)cc3)ccc21 (stereo partly drawn) [Example 315, (R)-1-methoxypropan-2-yl 6-(1-(4-fluorobenzamido)ethyl)-3,4-dihydro-1,5-naphthyridine-1(2H)-carboxylate] | 18 | 2.9 | –
11 | Cc1ncc(N2CCCc3nc(C(C)NC(=O)c4ccc(Cl)cc4)ccc32)s1 (stereo not shown) [Example 356, 4-chloro-N-(1-(5-(2-methylthiazol-5-yl)-5,6,7,8-tetrahydro-1,5-naphthyridin-2-yl)ethyl)benzamide] | 167 | 13 | –
12 | O=C(NC1(c2ccc3c(n2)CCCN3c2ccnc(C3CC3)n2)CC1)c1ccc(F)cc1 [Example 307, 5-(2-cyclopropylpyrimidin-4-yl)-2-(1-(4-fluorobenzamido)cyclopropyl)-5,6,7,8-tetrahydro-1,5-naphthyridin-1-ium 2,2,2-trifluoroacetate] | 63 | – | 0.89
13 | CC(NC(=O)c1ccc(F)cc1)c1ccc2c(n1)CCCN2C(=O)c1cc(Cl)cc(Cl)c1 (stereo not shown) [Example 149, N-{1-[5-(3,5-dichlorobenzene-1-carbonyl)-5,6,7,8-tetrahydro-1,5-naphthyridin-2-yl]ethyl}-4-fluorobenzamide] | 33 | – | 3.2
14 | CC(C(=O)Nc1ccc(Cl)cc1)c1ccc2c(c1)CC(F)CN2C(=O)c1cccc(Cl)c1 (single isomer, unassigned) [Example 256, 2-(1-(3-chlorobenzoyl)-3-fluoro-1,2,3,4-tetrahydroquinolin-6-yl)-N-(4-chlorophenyl)propanamide] | 50 | – | 2.37
15 | Cc1nccc(N2CCCc3nc(C4(C(=O)Nc5ccc(F)cc5)CC4(F)F)ccc32)n1 (single isomer, unassigned) [Example 421, 2,2-difluoro-N-(4-fluorophenyl)-1-(5-(2-methylpyrimidin-4-yl)-5,6,7,8-tetrahydro-1,5-naphthyridin-2-yl)cyclopropanecarboxamide] | 65 | 2.64 | –
16 | O=C(N1CCCc2cc(C3(C(=O)Nc4ccc(F)cc4)CCC3)ccc21)C1(F)CC1 [Example 98, 1-[1-(1-fluorocyclopropane-1-carbonyl)-1,2,3,4-tetrahydroquinolin-6-yl]-N-(4-fluorophenyl)cyclobutane-1-carboxamide] | 361 | – | 3.3
17 | O=C([C@H]1CCCCO1)N1CCCc2cc(C3(C(=O)Nc4ccc(F)cc4)CCC3)ccc21 (single isomer, unassigned) [Example 106] | 12 | – | 1.2
